Values of other authors as cited in patent EP4778926A1, “DEUTERATED DIARYL GLYCOLURIL TETRAMER COMPOUND AND USE THEREOF” (Shanghai Institute of Organic Chemistry, Chinese Academy of …, priority 2023, dated 2025).
Read-outs that look alike come from different tables or passages of the source.

Key:
[1] = for TOF→0.9 time, Average value: rats, Vecuronium Bromide (0.7 mg/kg), from literature (Liu et al.)
[2] = for TOF→0.9 time, Average time: rats, Rocuronium bromide (3.5 mg/kg), from literature (Liu et al.)
[3] = rats; Cisatracurium Besylate (0.6 mg/kg); neostigmine 0.24 mg/kg; from literature (Liu et al.)
[4] = rats; pancuronium bromide (0.5 mg/kg); neostigmine 0.24 mg/kg; from literature (Liu et al.)

Row | SMILES | TOF→0.9 time, Average value ([1]; Sugammadex Sodium 25 mg/kg) [s] | time that TOF recovered to 0.9 ([1]; vecuronium bromide, sugammadex sodium at the same dose (25 mg/kg), literature data) [s] | TOF→0.9 time, Average time ([2]; Sugammadex Sodium 25 mg/kg) [s] | time that TOF recovered to 0.9 ([2]; rocuronium bromide, sugammadex sodium at the same dose (25 mg/kg), literature data) [s] | TOF→0.9 time, Average time [3] [s] | TOF→0.9 time, Average value ([1]; neostigmine 0.24 mg/kg) [s] | TOF→0.9 time, Average value [4] [s] | TOF→0.9 time, Average time ([2]; neostigmine 0.24 mg/kg) [s]
1 | O=C([O-])CCSC[C@H]1O[C@@H]2O[C@H]3[C@H](O)[C@@H](O)[C@@H](O[C@H]4[C@H](O)[C@@H](O)[C@@H](O[C@H]5[C@H](O)[C@@H](O)[C@@H](O[C@H]6[C@H](O)[C@@H](O)[C@@H](O[C@H]7[C@H](O)[C@@H](O)[C@@H](O[C@H]8[C@H](O)[C@@H](O)[C@@H](O[C@H]9[C@H](O)C(O)[C@@H](O[C@H]1[C@H](O)[C@H]2O)O[C@@H]9CSCCC(=O)[O-])O[C@@H]8CSCCC(=O)[O-])O[C@@H]7CSCCC(=O)[O-])O[C@@H]6CSCCC(=O)[O-])O[C@@H]5CSCCC(=O)[O-])O[C@@H]4CSCCC(=O)[O-])O[C@@H]3CSCCC(=O)[O-].[Na+].[Na+].[Na+].[Na+].[Na+].[Na+].[Na+].[Na+] (some centres unmarked) [Sugammadex Sodium] | 18 | 18 | 52 | 52 | – | – | – | –
2 | CN(C)C(=O)Oc1cccc([N+](C)(C)C)c1 [neostigmine] | – | – | – | – | 210 | 315 | 1371 | 363
